Source: PMC9775310, “Anticancer, Antimicrobial, and Antioxidant Activities of Organodiselenide-Tethered Methyl Anthranilates” (Biomolecules, 2022)
Read-outs that look alike come from different tables or passages of the source.

Columns and labels:
[1] = test system: HepG2 cells; test: MTT assay, antiproliferative activity, HepG2 liver carcinoma cells; assay type: cell-based; conditions: Homo sapiens, read-out: HepG2 IC50
Experimental: (§1) The anticancer activity of the OSe was performed using the MTT assay against liver (HepG2) and breast (MCF-7) carcinoma cells, as well as normal WI-38 cells following the reported method. Experimental details can be found in the Supplementary Materials Section S1.
(§2) Accordingly, the anticancer properties of the OSe hybrids were assessed against two cancer cell lines, i.e., HepG2 and MCF-7 cells. Furthermore, their corresponding cytotoxicity was also estimated against the immortalized lung WI-38 fibroblasts employing the MTT assay. The Adriamycin cancer drug was used as the positive control. The concentration inhibition, 50%, needed to kill half of the cells (IC50) was estimated from (concentration-response plots) and tabulated in Table 1.
(§3) 1.1. The biological assays
(§4) 1.1.1. The anticancer activity
(§5) The breast adenocarcinoma (MCF-7), Hepatocellular carcinoma (HEPG-2), and normal fibroblast (WI-38) cells were obtained from ATCC via Holding company for biological products and vaccines (VACSERA), Cairo, Egypt. The reagents […] medium, MTT, DMSO, and fetal bovine serum was obtained from Sigma Aldrich. Dulbecco’s modified Eagle’s medium was used as the culture medium for the cells, and the cytotoxicity was evaluated using the reported MTT assay. Doxorubicin was used as the positive reference, and the IC50 values were obtained from the corresponding dose-response curve.
(§6) This colorimetric assay is based on converting the yellow tetrazolium bromide (MTT) to a purple formazan derivative by mitochondrial succinate dehydrogenase in viable cells. Cell lines were cultured in […] medium with 10% fetal bovine serum. Antibiotics added were 100 units/ml penicillin and 100µg/ml streptomycin at 37 C in a 5% Co2 incubator. The cell lines were seeded in a 96-well plate at a density of 1.0x10^4 cells/well. at 37 C for 48 h under 5% […]
Finally, dimethyl sulfoxide (DMSO) in the volume of 100 µl is added to each well to dissolve the purple formazan formed. The colorimetric assay is measured and recorded at an absorbance of 570 nm using a plate reader (EXL 800, USA). […]

[2] = test system: WI-38 cells; test: MTT assay, cytotoxicity against normal WI-38 fibroblasts; assay type: cell-based; conditions: Homo sapiens, WI-38, 24 h, read-out: WI38 IC50
Experimental: as §1
as §2, with “control.” for “control. The concentration inhibition, 50%, needed to kill half of the cells (IC50) was estimated from (concentration-response plots) and tabulated in Table 1.”
as §3, §4, §5, §6
(§7) Finally, dimethyl sulfoxide (DMSO) in the volume of 100 µl is added to each well to dissolve the purple formazan formed. […]

[3] = test system: Candida albicans; test: Agar well diffusion assay, C. albicans; assay type: cell-based; conditions: read-out: C. Albicans ZID
[4] = test system: Staphylococcus aureus; test: Agar well diffusion assay, S. aureus; assay type: cell-based; conditions: read-out: S. aureus ZID
[5] = test system: Staphylococcus aureus; test: Agar well diffusion assay, S. aureus; assay type: cell-based; conditions: ratio of inhibition zone to that of positive control
Experimental: (§8) According to the reported method, the OSe agents’ antimicrobial properties were estimated against Staphylococcus aureus (S. aureus), Escherichia coli (E. coli), and Candida albicans (C. albicans) microbial strains using the agar well diffusion assay. In addition, the MICs (in […]) were also recorded via the microdilution method following the reported procedure. Experimental details can be found in the Supplementary Materials Section S1 [16, 18].
(§9) The promising anticancer activities manifested by the OSe compounds encourage us to further evaluate their respective antimicrobial activity against a panel of gram-negative bacteria (e.g., E. coli) and the gram-positive bacteria (e.g., S. aureus) as well as a fungal strain (C. albicans) using the method of agar diffusion. The clotrimazole antifungal and the ampicillin antibacterial drugs were used as the positive controls. […]
(§10) 1.1.2. The antimicrobial activity
(§11) The antimicrobial activities of the OSe compounds were evaluated against C. albicans yeast as well as E. coli gram-negative and S. aureus gram-positive bacteria employing the agar well diffusion assay [ 4 ] .
(§12) Briefly, a concentration of 1 mM was prepared for each compound by dissolving in DMSO.
(§13) Paper discs of standard size […] were sterilized in an autoclave and soaked in 9 µL of the test compounds, and placed in the Petri dishes, which in turn contain a nutrient media (agar 9 g, peptone 5 g, and beef extract 3 g) seeded with the dedicated strain. Incubation lasted for 13 h at 36 0C. Experiments were replicated three times and the antifungal clotrimazole and antibiotic ampicillin were used as standards. The % activity index for the complex was determined and depicted in table 2. […]

[6] = test system: MCF-7 cells; test: MTT assay, antiproliferative activity, MCF-7 breast carcinoma cells; assay type: cell-based; conditions: Homo sapiens, MCF7, 24 h, read-out: MCF7 IC50
Experimental: as §1
as §2, with “control.” for “control. The concentration inhibition, 50%, needed to kill half of the cells (IC50) was estimated from (concentration-response plots) and tabulated in Table 1.”
as §3, §4, §5, §6, §7

[7] = test system: Candida albicans; test: Agar well diffusion assay, C. albicans; assay type: cell-based; conditions: ratio of inhibition zone to that of positive control
Experimental: as §8, §9, §10, §11, §12, §13

[8] = test system: Escherichia coli; test: Agar well diffusion assay, E. coli; assay type: cell-based; conditions: read-out: E. coli ZID
[9] = test system: Escherichia coli; test: Agar well diffusion assay, E. coli; assay type: cell-based; conditions: ratio of inhibition zone to that of positive control
Experimental: as §8, §9, §10, §11, §12, §13

[10] = DPPH radical scavenging bioassay; conditions: for DPPH radical scavenging activity: 200 µL, 1 mM in MeOH, DPPH 400 µL, 30 min, 517 nm
From the text: (§14) The DPPH and ABTS in vitro bioassays were used to assess the OSe antioxidant activities following the reported method. Experimental details can be found in the Supplementary Materials Section S1.
(§15) The redox modulation activities of the OSe compounds were extensively explored over the last decade owing to their chemopreventive and antioxidant potency. The latter is usually investigated by the ABTS and DPPH in vitro tests employing vitamin C as the positive control. The OSe compound’s magnitude estimated the antioxidant potential to decolorize the distinctive colors of the DPPH^. and ABTS^. radicals at 517 nm and 734 nm, respectively (Figure 2).
(§16) Figure 2 The OSe compounds redox activities assessment using the ABTS and DPPH experiments. All tests are mean ± SD. ABTS experiment: absorbance was followed at 734 nm for OSe compounds (50 µL, 1 mM in MeOH) and ABTS solution (60 µL). DPPH experiment: Absorbance was monitored after 30 min at 517 nm for OSe compounds (200 µL, 1 mM in MeOH) and DPPH (400 µL). […]
1.1.3. The antioxidant activity
1.1.3.1. The DPPH bioassay
The hydrogen atom or electron donation ability of the corresponding compounds was measured by estimating the bleaching of the purple color of a methanolic solution of DPPH [5]. This spectrophotometric assay uses stable DPPH. reagent. The sample was prepared by adding […] of the OSe compounds (1 mM in methanol) to […] DPPH in methanol. After 30 min of incubation in the dark, the absorbance was read against a blank at […]. Ascorbic acid (vitamin C) and ebselen were used as standard antioxidants (positive control). A blank sample was run without DPPH. A negative control sample was run using methanol instead of the sample. The radical scavenging activity was […]
using the following equation:
Inhibition%= (Ablank-Asample)/(Ablank)*100. […]

[11] = ABTS radical scavenging bioassay; conditions: dose needed to decrease the absorbance by 50%
From the text: as §14, §15, §16
1.1.3.2. The ABTS bioassay
The antioxidant activity of the investigated compounds was assessed using 2,2’-azino-bis(3-ethylbenzothiazoline-6-sulphonic acid (ABTS) method. The radical cation derived from ABTS was prepared by the reaction of 60 mM ABTS solution with 0.3 M manganese dioxide solution in 0.1M phosphate buffer, pH 7. Then, the mixture was shaken, centrifuged, filtered, and the absorbance (Acontrol) of the resulting green-blue solution (ABTS radical solution) was measured at wavelength 734 nm. Then, […] of 1 mg/ml test compound in phosphate-buffered methanol was added. The absorbance (Atest) was measured. The reduction in color intensity was expressed as % inhibition. The % inhibition for each compound is calculated from the following equation
Inhibition% = (Acontrol-Asample)/(Acontrol)*100
Ascorbic acid (vitamin C) was used as a standard antioxidant (positive control). A blank sample was run without ABTS and using MeOH/phosphate buffer (1:1) instead of the sample. A negative control sample was run with MeOH/phosphate buffer (1:1) instead of a tested compound.

| Structure (SMILES) | IC50 ([1]; MTT, HepG2 cells, 24 h incubation) [µM] | IC50 [2] [µM] | zone of inhibition at 20 µM [3] [mm] | zone of inhibition at 20 µM [4] [mm] | S. aureus IA% (activity index) [5] [%] | IC50 [6] [µM] | C. Albicans IA% (activity index) [7] [%] | melting point [°C] | IC50 ([1]; HepG2, 24 h) [µM] | zone of inhibition at 20 µM [8] [mm] | E. coli IA% (activity index) [9] [%] | DPPH radical scavenging activity [10] [%] | IC50 ([10]; dose needed to decrease the absorbance by 50%) [µM] | IC50 [11] [µM] |
| --- | --- | --- | --- | --- | --- | --- | --- | --- | --- | --- | --- | --- | --- | --- |
| COc1cccc2c1C(=O)c1c(O)c3c(c(O)c1C2=O)C[C@@](O)(C(=O)CO)C[C@@H]3O[C@H]1C[C@H](N)[C@H](O)[C@H](C)O1 [Adriamycin, reference compound] | 4.5 ± 0.2 | – | – | – | – | – | – | – | – | – | – | – | – | – |
| COC(=O)c1cc([Se][Se]c2ccc(NC=O)c(C(=O)OC)c2)ccc1NC=O [Compound 7, dimethyl 5,5′-diselanediylbis(2-formamidobenzoate)] | – | 45.7 ± 2.7 | 4 | 3 | 14.3 | 79 ± 4.2 | 16.7 | 195 to 196 | 83.7 ± 4.4 | – | – | – | – | – |
| COC(=O)c1cc([Se][Se]c2ccc(NC(=O)/C=C\C(=O)O)c(C(=O)OC)c2)ccc1NC(=O)/C=C\C(=O)O [Compound 13, (2Z,2’Z)-4,4′-((diselanediylbis(2-(methoxycarbonyl)-4,1-phenylene))bis(azanediyl)) bis (4-oxobut-2-enoic acid)] | – | 47 ± 2.8 | 5 | 4 | 19.0 | 76.2 ± 4 | 20.8 | 149.5 to 151 | 78.5 ± 3.9 | – | – | – | – | – |
| COC(=O)c1cc([Se][Se]c2ccc(NC(=O)COc3ccccc3)c(C(=O)OC)c2)ccc1NC(=O)COc1ccccc1 [Compound 10, dimethyl 5,5′-diselanediylbis(2-(2-phenoxyacetamido) benzoate)] | – | 38.2 ± 2.5 | 5 | 8 | 38.1 | 53.5 ± 3 | 20.8 | 152 to 154 | 81.5 ± 4.2 | 5 | 21.7 | – | – | – |
| COC(=O)c1cc([Se][Se]c2ccc(N3C(=O)CCC3=O)c(C(=O)OC)c2)ccc1N1C(=O)CCC1=O [Compound 12, dimethyl 5,5′-diselanediylbis(2-(2,5-dioxopyrrolidin-1-yl) benzoate] | – | > 100 | – | – | – | > 100 | – | 100 | > 100 | – | – | – | – | – |
| COC(=O)c1cc([Se]CC(=O)Nc2ccccc2)ccc1N [Compound 16, methyl 2-amino-5-((2-oxo-2-(phenylamino)ethyl)selanyl) benzoate] | – | 71.9 ± 4.1 | 13 | 9 | 42.8 | 50.8 ± 2.9 | 54.2 | 126 to 128.5 | 30.6 ± 2.4 | 6 | 26.1 | – | – | – |
| COC(=O)c1cc([Se]Cc2ccccc2)ccc1N [Compound 15, methyl 2-amino-5-(benzylselanyl) benzoate] | – | 25.8 ± 1.8 | 22 | 18 | 85.7 | 12.8 ± 0.9 | 91.7 | 78 | 6.48 ± 0.4 | 17 | 73.9 | 89 | – | – |
| COC(=O)c1cc([Se][Se]c2ccc(NC(C)=O)c(C(=O)OC)c2)ccc1NC(C)=O [Compound 8, dimethyl 5,5′-diselanediylbis(2-acetamidobenzoate)] | – | > 100 | – | – | – | > 100 | – | 186 to 187 | > 100 | – | – | – | – | – |
| COC(=O)c1cc([Se][Se]c2ccc(NC(=O)CCC(=O)O)c(C(=O)OC)c2)ccc1NC(=O)CCC(=O)O [Compound 11] | – | > 100 | 10 | 7 | 33.3 | 55.1 ± 3.2 | 41.7 | 150 to 152 | 43.7 ± 2.6 | 5 | 21.7 | – | – | – |
| COC(=O)c1cc([Se][Se]c2ccc(NC(=O)CCl)c(C(=O)OC)c2)ccc1NC(=O)CCl [Compound 9, dimethyl 5,5′-diselanediylbis(2-(2-chloroacetamido) benzoate)] | – | > 100 | – | – | – | > 100 | – | 150 to 152 | > 100 | – | – | – | – | – |
| O=C1O[C@H]([C@@H](O)CO)C(O)=C1O [Vitamin C, Ascorbic acid, reference compound] | – | – | – | – | – | – | – | – | – | – | – | 95 | 19.18 ± 0.13 | 28.16 ± 0.19 |
